From patent US12528774B2, “Thiosemicarbazone compounds and uses thereof” (The Regents of the University of California, priority 2019, dated 2026)

What was measured:
[1] = HCT-13 stock solution (solubilization); format: physicochemical; conditions: aqueous with cosolvent or surfactant or cyclodextrin; aqueous 40% captisol with 1% DMSO, heating 50° C., sonication 15 minutes; read-out: concentration solubilized
Description: HCT-13 stock solution. HCT-13 was solubilized up to a concentration of 20 mg/mL in an aqueous solution of 40% captisol with 1% DMSO with the aid of heating at 50° C. and sonication for 15 minutes.

[2] = tested on: MIAPACA2 cells; experiment: Western blot of treated MIAPACA2 cells; format: cell-based, human; conditions: for phosphorylation of CHEK1 and CHEK2: HCT13 + Cu(II)
Description: FIGS. 2A-2I. FIG. 2A: representative immunoblots of MIAPACA2 PDAC cells treated as indicated for 24h. FIGS. 2B-2C: reactive oxygen species (ROS) measurement using CM-H2DCFDA staining after HCT13 (25 nM)+Cu(II) (20 μM) treatment for 24h; mean fluorescence intensity (MFI); mean±SD, n=2, Student t-test, ***P<0.001. FIG. 2D-2E: mitochondrial ROS detection using MitoSOX staining in MIAPACA2 PDAC cells treated with HCT-13 (25 nM)+Cu(II) (20 μM) for 24h; mean±SD, n=2, Student t-test, ***P<0.001. FIG. 2F: oxygen consumption rate (OCR) of MIAPACA2 PDAC cells treated with HCT-13 (25 nM)+Cu(II) (20 μM). FIG. 2G: OCR of isolated mitochondria measured with or without HCT-13 (25 nM)+Cu(II) (20 μM). FIG. 2H: viability of 143 BTK parental (wild type, WT) and po cells after 48 h of treatment with the indicated HCT-13 concentrations+Cu(II) (20 μM) treatment, assessed with trypan blue staining; mean±SD, n=2, Student t-test, ***P<0.001. FIG. 2I: cell viability by trypan blue staining in MIAPACA2 PDAC cells to interrogate the interaction of HCT-13 (25 nM)+Cu(II) (20 μM) with 2-DG (2 mM) for 48 h; mean±SD, n=2, Student t-test, ***P<0.001.
FIGS. 4A-4G show the chemical genomics screen identifying the replication stress response pathway as an actionable co-dependency of HCT13-treated cells. FIG. 4A: experimental design of a synthetic lethality screen using a library of protein kinase inhibitors against HCT13-treated cells in the presence of Cu(II) (20 μM). FIG. 4B: radar plot of screen results. FIG. 4C: z-score values for kinase inhibitors within the DNA damage response/replication stress response (DDR/RSR) pathway module. FIG. 4D: representative immunoblot of replication stress and cell death biomarkers in MIAPACA2 PDAC cells treated with HCT13 (10 nM)+Cu(II) (20 μM). […] (mean±SD, n=2, one-way ANOVA corrected for multiple comparisons by Bonferroni adjustment, * P<0.05; ** P<0.01; *** P<0.001; **** P<0.0001).
(§1) Western blot: Cells were lysed using RIPA buffer supplemented with protease (ThermoFisher, 78,430) and phosphatase (ThermoFisher, 78,420) inhibitors, scraped, sonicated, and centrifuged (20,000×g at 4° C.). Protein concentrations in the supernatant were determined using the Micro BCA Protein Assay kit (Thermo), and equal amounts of protein were resolved on pre-made Bis-Tris polyacrylamide gels (Life Technologies). Primary antibodies: pAMPKT172 (Cell signaling, #2535, 1:1000), HO-1 (Cell signaling, #5061S, 1:1000), pS345 CHEK1 (Cell signaling, #2348L, 1:1000), pT68 CHEK2 (Cell signaling, #2197 S, 1:1000), pS139 H2A.X (Millipore, 05-636, 1:1000), clvd. Casp3 (Cell signaling, #9662, 1:1000), and anti-actin (Cell Signaling Technology, 9470, 1:10,000). Primary antibodies were stored in 5% BSA (Sigma-Aldrich) and 0.1% NaN3 in TBST solution. Anti-rabbit IgG HRP-linked (Cell Signaling Technology, 7074, 1:2500) and anti-mouse IgG HRP-linked (Cell Signaling Technology, 7076, 1:2500) were used as secondary antibodies. Chemiluminescent substrates (ThermoFisher Scientific, 34,077 and 34,095) and autoradiography film (Denville) were used for detection.
as §1, with “blot.” for “blot:”, “Anti-rabbit IgG HRP-linked (Cell Signaling Technology, 7074, 1:2500) and anti-mouse IgG HRP-linked (Cell Signaling Technology, 7076, 1:2500) were used as secondary antibodies. Chemiluminescent substrates (ThermoFisher Scientific, 34,077 and 34,095) and autoradiography film (Denville) were used for detection.” left out

CN(C)C(=S)N/N=C/c1nccc2cc(F)ccc12 (mixture of isomers) [HCT13, (E)-2-((6-Fluoroisoquinolin-1-yl)methylene)-N,N-dimethylhydrazine-1-carbothioamide and (Z)-2-((6-Fluoroisoquinolin-1-yl)methylene)-N,N-dimethylhydrazine-1-carbothioamide]
solubility at 15 min [1]: ≤ 20 mg/mL | heme oxygenase-1 (HO-1) levels ([2]; 24 h): increased | AMPK phosphorylation (T172) ([2]; Cu(II)-supplemented cells, 24 hours): induction | phosphorylation of CHEK1 and CHEK2 [2]: consistently observed phosphorylation | phosphorylation of CHEK1 and CHEK2 ([2]; listed as HCT-13): phosphorylation of CHEK1 and CHEK2 kinases was observed | DNA damage marker pH2AX ([2]; HCT-13 + Cu(II)): induction of DNA damage marker pH2AX | apoptotic marker caspase 3 ([2]; HCT-13 + Cu(II)): cleavage of apoptotic marker caspase 3
